Reference: US11241440B2, “Dihydrooxadiazine compounds for treating infections and cancer” (VALORALIA I MÁS D, SL, priority 2016, dated 2022)
Like-named read-outs stand apart in the source and are kept apart here.

Key:
T. pulmonis = experiment: Kirby-Bauer disk diffusion susceptibility test; format: cell-based, Tsukamurella pulmonis; settings: T. pulmonis; 100 μg/disc; zone of inhibition
M. abscessus = experiment: Kirby-Bauer disk diffusion susceptibility test; format: cell-based, Mycobacterium abscessus; settings: M. abscessus; 100 μg/disc; zone of inhibition
S. epidermidis = experiment: Kirby-Bauer disk diffusion susceptibility test; format: cell-based, Staphylococcus epidermidis; settings: S. epidermidis; 100 μg/disc; zone of inhibition
S. aureus = experiment: Kirby-Bauer disk diffusion susceptibility test; format: cell-based, Staphylococcus aureus; settings: S. aureus; 100 μg/disc; zone of inhibition
B. cereus = experiment: Kirby-Bauer disk diffusion susceptibility test; format: cell-based, Bacillus cereus; settings: B. cereus
[1] = Cellular viability, CellTiter Glo; format: cell-based; settings: human, read-out: CC50 nM (concentration of drug required to kill 50% of cells)
Experimental: (§1) All assays for assessing anti-HIV activity were taken in parallel to determine cellular viability of the culture in the presence or absence of different concentrations of the isolated molecule. It was followed exactly the same methodology as in the anti-HIV assay except with the addition of complete DMEM medium instead of supernatant viral, in the same proportion, and the detection of the viability was performed with the viability detection kit CellTiter Glo (Promega), following manufacturer instructions. Viability is directly proportional to the luciferase activity obtained. All data are expressed as percentage relative to a control with DMSO at the same concentration. Antiviral activity and toxicity curves were performed to the compound at different concentrations.

MT-2 cells = experiment: Cellular viability, CellTiter Glo; format: cell-based
Experimental: as §1

PBMCs = experiment: Cellular viability, CellTiter Glo; format: cell-based; settings: PBMCs cells
Experimental: as §1

PRV-NIA3 = format: cell-based, porcine pseudorabies virus (PRV); settings: compound 2 μM
[2] = tested on: XGF-G (gG-deficient PRV gIS8); format: cell-based, porcine pseudorabies virus (PRV)
MCF7 = experiment: MTT assay; format: cell-based; settings: Homo sapiens, 48 hours
T98G = experiment: MTT assay; format: cell-based
Text: This compound has a purple hue.
All tests are always in triplicate.
In Table VIII, quantification of the best IC50 is shown (concentration of compound that inhibits 50% of cell growth) using GraphPad Prism program.

PC3 = experiment: MTT assay; format: cell-based; settings: Homo sapiens, PC-3, 48 hours
HOS = experiment: MTT assay; format: cell-based; settings: Homo sapiens, 48 hours
[3] = tested on: all tumor cell lines tested; experiment: MTT assay, tumor cell lines of Table VII taken together

## CCCCCC1=NN(C(=O)CCO)OC(CCCCC)C1 (centres unmarked) [Compound, 1-(4,6-dipentyl-5,6-dihydro-2H-1,2,3-oxadiazin-2-yl)-3-hydroxypropan-1-one]
T. pulmonis
  Activity (mm), 100 μg/disc: 49-52 mm
M. abscessus
  Activity (mm), 100 μg/disc: 56 mm
S. epidermidis
  Activity (mm), 100 μg/disc: 16-18 mm
S. aureus
  Activity (mm), 100 μg/disc: 20-22 mm
B. cereus
  kind of antibiotic activity: bacteriostatic
B. cereus; 100 μg/disc, zone of inhibition
  Activity (mm), 100 μg/disc: 37-40 mm
[1]; MT-2 cells
  CC50: 2500 to 5000 nM
[1]; PBMCs
  CC50: 2500 to 5000 nM
MT-2 cells
  toxicity: only in the highest concentrations tested (5 and 10 μM)
PBMCs
  toxicity: only in the highest concentrations tested (5 and 10 μM)
PRV-NIA3
  reduction of the titer: 0.5 logarithms
[2]
  reduction of the titer: 0.7 logarithms
MCF7
  IC50: 127 nM
T98G
  concentration at which inhibition is obtained: 50 nM
  optimal concentration of inhibition: 100 nM
T98G; Homo sapiens, 48 hours
  IC50: 106 nM
PC3
  IC50: 217 nM
HOS
  IC50: 170 nM
[3]; all tumor cell lines tested
  antitumoral activity: exhibited activity in all tumor cell lines tested
[3]; rest of the cell lines (other than CAL33 and T98G)
  concentration at which inhibition began to be relevant: 100 nM
